According to patent US20260297042A1, “BIARYLAMIDE DERIVATIVES AND THEIR USE AS PKMYT1 INHIBITORS” (CANCER RESEARCH TECHNOLOGY LIMITED, priority 2023, published 2026):

Tests used:
Human PKMYT1 = molecular target: T1, Human PKMYT1 (Homo sapiens, UniProt Q99640); assay: PKMYT1 biochemical ADP-Glo enzymatic assay; conditions: ADP-Glo; 15 nM PKMYT1 kinase domain, 500 µM ATP, 60 minutes at 26° C.; banded
T1 construct: Human PKMYT1 75-362 was cloned as a TEV cleavable 6xHis fusion; 6xHis (TEV cleavable) (cleaved yes); made in house; host or cells: bacterial cells
T1 sequence (Q99640 75-362): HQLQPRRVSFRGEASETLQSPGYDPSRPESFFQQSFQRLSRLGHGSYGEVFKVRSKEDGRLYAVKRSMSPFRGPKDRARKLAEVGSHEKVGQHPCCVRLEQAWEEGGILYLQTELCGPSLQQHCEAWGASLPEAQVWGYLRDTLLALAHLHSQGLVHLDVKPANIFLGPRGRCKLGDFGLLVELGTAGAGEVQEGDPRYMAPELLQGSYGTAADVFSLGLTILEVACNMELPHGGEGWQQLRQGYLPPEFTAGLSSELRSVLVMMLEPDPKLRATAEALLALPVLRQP
Procedure, shortened: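 Measures inhibition of PKMYT1 autonomous ATP hydrolysis: bacterially expressed human enzyme (75-362, tag cleaved) at 15 nM with 500 µM ATP for 60 min at 26 °C, then ADP-Glo Max detection. IC50s accepted only when replicates agreed within 3-fold and curve r2 exceeded 0.9.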

WEE1 = molecular target: T2, WEE1 (Homo sapiens, UniProt P30291); assay: Selectivity versus WEE1 assay (ADP-Glo enzymatic assay); format: biochemical; conditions: banded; for IC50: ADP-Glo, 15 nM WEE1, 60 minutes at 26° C.; for PKMYT1 vs. WEE1 selectivity: fold difference in selectivity for PKMYT1 over WEE1, ">N" = at least in this band but could be higher
T2 construct: purchased Thermo Fisher PR7373A
Procedure, shortened: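 Same format as the PKMYT1 assay: WEE1 at 15 nM final with 30 µM ATP, 60 min at 26° C, ADP-Glo luminescence detection, IC50 by dose-response fitting.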

OVCAR3 cells = assay: Cancer cell line proliferation assay, nuclear count, OVCAR3 (CCNE1-amplified); format: cell-based; conditions: banded; for Selectivity ratio KYSE30 GI50 vs. OVCAR3 GI50: >N = at least in this band; for GI50: Homo sapiens, OVCAR-3, CCNE1-amplified ovarian cancer, nuclear count
Experimental: (§1) h-TERT-RPE1 TP53−/− and CCNE1 high expressing clones (clone cell lines 7 and 15) were treated with test compounds dissolved in DMSO at serially diluted concentrations alongside a DMSO only control for around 6 population doublings time. Cells were then fixed with 4% Paraformaldehyde and the cell nuclei were stained with DAPI (Sigma D9542). Images covering each well were acquired by an Opera Phenix® High-Content Screening System (PerkinElmer). Image analysis was performed using Harmony® high-content analysis software (PerkinElmer). Data analysis was performed using Microsoft Excel® and GI50 estimates generated with GraphPad Prism v9. Percent nuclear count was compared to vehicle control wells and used to measure inhibition of proliferation.
(§2) Cancer cell lines with either normal (KYSE-30) or amplified CCNE1 expression (OVCAR3-ovarian cancer) were evaluated for their sensitivity to PKMYT1 inhibitors in a nuclear count assay as described above for h-TERT-RPE1 TP53−/− and a CCNE1 high expressing clones, taking into account the slower cell cycle division times of these lines.

KYSE-30 cells [1] = assay: Cancer cell line proliferation assay, nuclear count, KYSE-30 (normal CCNE1); format: cell-based; conditions: Homo sapiens, normal CCNE1 expression, banded, read-out: KYSE30 GI50
Experimental: as §1, §2

OVCAR 3 cells = assay: Cancer cell line proliferation assay, ATP-based cell viability (Cell Titre Glow), OVCAR 3 (CCNE1-amplified); conditions: KYSE30 (normal CCNE1) GI50 vs. OVCAR 3 (CCNE1-amplified) GI50
Procedure, shortened: (§3)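 Sensitivity to PKMYT1 inhibitors was measured by ATP-based luminescence (CellTiter-Glo) as the proliferation endpoint. GI50, the concentration giving 50% growth inhibition, was estimated from curve fits.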

KYSE-30 cells [2] = assay: Cancer cell line proliferation assay, ATP-based cell viability (Cell Titre Glow), KYSE-30 (normal CCNE1); conditions: Homo sapiens, KYSE-30 cells (normal CCNE1), concentration that achieves 50% cell growth proliferation inhibition, read-out: KYSE30 Gl50
Procedure, shortened: as §3

[3] = system: h-TERT-RPE1 TP53−/− parental cells; assay: Nuclear count cell proliferation assay, parental (wild type) h-TERT-RPE1 TP53−/− cells; format: cell-based; conditions: hTERT-RPE1, h-TERT-RPE1 TP53−/− parental (Wt), around 6 population doublings, banded, read-out: RPE Wt GI50
Experimental: as §1

[4] = system: h-TERT-RPE1 TP53−/− CCNE1 high expressing clone cell line 15 (CL15); assay: Nuclear count cell proliferation assay, CCNE1 high expressing clone cell line 15 (CL15) of h-TERT-RPE1 TP53−/−; format: cell-based; conditions: banded; for Selectivity Ratio Wt vs. CL15: GI50 ratio RPE Wt vs. CL15, >N = at least in this band; for GI50: h-TERT-RPE1 TP53−/− CCNE1 high clone CL15, nuclear count, around 6 population doublings, read-out: RPE CL15 GI50
Experimental: as §1

[5] = molecular target: T3, Cellular PKMYT1 Biomarker CDK1 pT14 (Homo sapiens, UniProt Q99640); assay: Inhibition of cellular PKMYT1 biomarker CDK1 pT14 in OVCAR 3 cells (immunoblot); format: cell-based; conditions: 20 hours incubation
T3 construct: read-out CDK1 phospho-T14 immunoblot
T3 sequence (Q99640 1-499): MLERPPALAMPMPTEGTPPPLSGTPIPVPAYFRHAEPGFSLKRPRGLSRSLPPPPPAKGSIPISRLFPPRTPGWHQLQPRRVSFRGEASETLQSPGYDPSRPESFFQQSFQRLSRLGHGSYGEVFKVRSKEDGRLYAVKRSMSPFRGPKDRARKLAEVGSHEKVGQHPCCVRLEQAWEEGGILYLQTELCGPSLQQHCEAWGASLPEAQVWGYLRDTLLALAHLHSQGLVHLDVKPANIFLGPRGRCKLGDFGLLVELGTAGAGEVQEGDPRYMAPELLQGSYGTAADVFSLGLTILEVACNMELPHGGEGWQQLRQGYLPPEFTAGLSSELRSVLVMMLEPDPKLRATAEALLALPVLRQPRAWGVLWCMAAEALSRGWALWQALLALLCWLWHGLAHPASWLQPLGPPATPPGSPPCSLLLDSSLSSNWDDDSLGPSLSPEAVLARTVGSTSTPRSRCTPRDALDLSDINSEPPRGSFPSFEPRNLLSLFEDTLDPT
Procedure, shortened: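 Confluent OVCAR 3 cells treated with a compound concentration range for 20 h at 37 °C. Lysates analysed by automated capillary immunoblot for CDK1 phospho-T14, with vinculin, fluorescence detection; IC50 by regression.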

[6] = system: h-TERT-RPE1 TP53−/− CCNE1 high expressing clone cell line 7 (CL7); assay: Nuclear count cell proliferation assay, CCNE1 high expressing clone cell line 7 (CL7) of h-TERT-RPE1 TP53−/−; format: cell-based; conditions: banded; for Selectivity Ratio Wt vs. CL7: GI50 ratio RPE Wt vs. CL7, >N = at least in this band; for GI50: hTERT-RPE1, h-TERT-RPE1 TP53−/− CCNE1 high clone CL7, nuclear count, around 6 population doublings, read-out: RPE CL7 GI50
Experimental: as §1

T2 sequence (P30291 whole entry): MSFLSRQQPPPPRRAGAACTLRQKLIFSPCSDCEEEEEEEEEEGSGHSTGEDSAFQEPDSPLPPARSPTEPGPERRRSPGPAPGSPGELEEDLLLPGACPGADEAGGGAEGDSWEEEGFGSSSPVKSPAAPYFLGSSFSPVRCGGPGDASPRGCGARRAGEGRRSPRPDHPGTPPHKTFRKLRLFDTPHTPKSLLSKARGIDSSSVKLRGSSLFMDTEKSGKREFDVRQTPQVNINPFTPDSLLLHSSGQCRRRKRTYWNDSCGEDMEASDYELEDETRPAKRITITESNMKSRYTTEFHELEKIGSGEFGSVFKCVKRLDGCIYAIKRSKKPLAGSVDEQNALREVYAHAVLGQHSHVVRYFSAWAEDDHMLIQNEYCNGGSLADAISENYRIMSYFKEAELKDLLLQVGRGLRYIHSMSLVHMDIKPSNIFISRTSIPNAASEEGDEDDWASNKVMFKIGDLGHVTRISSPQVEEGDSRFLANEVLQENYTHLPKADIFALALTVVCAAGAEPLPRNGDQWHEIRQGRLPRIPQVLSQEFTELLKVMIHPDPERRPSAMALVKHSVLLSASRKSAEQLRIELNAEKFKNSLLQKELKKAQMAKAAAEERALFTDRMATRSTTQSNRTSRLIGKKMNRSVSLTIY

| Compound | IC50 (Human PKMYT1) | IC50 (WEE1) | PKMYT1 vs. WEE1 selectivity (WEE1) | GI50 (OVCAR3 cells) | IC50 [5] | Selectivity ratio KYSE30 GI50 vs. OVCAR3 GI50 (OVCAR3 cells) | GI50 (KYSE-30 cells [1]) | Selectivity ratio KYSE30 Gl50 vs. OVCAR3 Gl50 (OVCAR 3 cells) | GI50 (KYSE-30 cells [2]) | GI50 [3] | Selectivity Ratio Wt vs. CL15 [4] | GI50 [4] | Selectivity Ratio Wt vs. CL7 [6] | GI50 [6] |
| --- | --- | --- | --- | --- | --- | --- | --- | --- | --- | --- | --- | --- | --- | --- |
| CCOC(=O)c1cn(C)nc1Nc1ncc(C(=O)Nc2c(C)ccc(O)c2C)s1 [BAA-129, ethyl 3-[[5-[(3-hydroxy-2,6-dimethyl-phenyl)carbamoyl]thiazol-2-yl]amino]-1-methyl-pyrazole-4-carboxylate] | 0.05 to 1 µM | > 11 µM | >Y (1000-5000 fold) | – | – | – | – | – | – | > 10 µM | X (3-<10 fold) | 0.5 to 3 µM | – | – |
| Cc1ccc(O)c(C)c1NC(=O)c1cnc(Nc2ccn(CC(=O)NC3CCN(C(=O)OC(C)(C)C)CC3)n2)s1 [BAA-152] | < 0.05 µM | 1 to 11 µM | X (100-<1000 fold) | – | – | – | – | – | – | > 10 µM | X (3-<10 fold) | 0.5 to 3 µM | – | – |
| Cc1ccc(O)c(C)c1NC(=O)c1cnc(Nc2ccn(CC(=O)OC(C)C)n2)s1 [BAA-209, Isopropyl 2-[3-[[5-[(3-hydroxy-2,6-dimethyl-phenyl)carbamoyl]thiazol-2-yl]amino]pyrazol-1-yl]acetate] | < 0.05 µM | > 11 µM | X (100-<1000 fold) | – | – | – | – | – | – | 0.5 to 3 µM | – | – | >X (3-<10 fold) | < 0.5 µM |
| Cc1ccc(O)c(C)c1NC(=O)c1cnc(Nc2ccn(CC(=O)N3CCN(CC4CC4)CC3)n2)s1 [BAA-183] | < 0.05 µM | > 11 µM | Y (1000-5000 fold) | – | – | – | – | – | – | 3 to 10 µM | – | – | X (3-<10 fold) | < 0.5 µM |
| Cc1ccc(O)c(C)c1NC(=O)c1cnc(NC2CC2)s1 [BAA-061, 2-(cyclopropylamino)-N-(3-hydroxy-2,6-dimethyl-phenyl)thiazole-5-carboxamide] | 0.05 to 1 µM | > 11 µM | X (100-<1000 fold) | – | – | – | – | – | – | 3 to 10 µM | X (3-<10 fold) | 0.5 to 3 µM | – | – |
| Cc1ccc(O)c(C)c1NC(=O)c1cnc(Nc2cc(C(F)(F)F)nn2C)s1 [BAA-046, N-(3-hydroxy-2,6-dimethyl-phenyl)-2-[[2-methyl-5-(trifluoromethyl)pyrazol-3-yl]amino]thiazole-5-carboxamide] | 0.05 to 1 µM | > 11 µM | >X (100-<1000 fold) | 0.5 to 3 µM | – | X (3-<10 fold) | 3 to 10 µM | – | – | – | – | – | – | – |

The next lines start with results.

| IC50 (Human PKMYT1) | IC50 (WEE1) | PKMYT1 vs. WEE1 selectivity (WEE1) | GI50 (OVCAR3 cells) | IC50 [5] | Compound | Selectivity ratio KYSE30 GI50 vs. OVCAR3 GI50 (OVCAR3 cells) | GI50 (KYSE-30 cells [1]) | Selectivity ratio KYSE30 Gl50 vs. OVCAR3 Gl50 (OVCAR 3 cells) | GI50 (KYSE-30 cells [2]) | GI50 [3] | Selectivity Ratio Wt vs. CL15 [4] | GI50 [4] | Selectivity Ratio Wt vs. CL7 [6] | GI50 [6] |
| --- | --- | --- | --- | --- | --- | --- | --- | --- | --- | --- | --- | --- | --- | --- |
| < 0.05 µM | 1 to 11 µM | X (100-<1000 fold) | < 0.5 µM | – | Cc1cn(CC(=O)N2CCCC2)nc1Nc1ncc(C(=O)Nc2c(C)ccc(O)c2C)s1 [BAA-208, N-(3-hydroxy-2,6-dimethyl-phenyl)-2-[[4-methyl-1-(2-oxo-2-pyrrolidin-1-yl-ethyl)pyrazol-3-yl]amino]thiazole-5-carboxamide] | Z (>30 fold) | > 10 µM | Y (>20 fold) | > 5 µM | – | – | – | – | – |
| 0.05 to 1 µM | > 11 µM | >X (100-<1000 fold) | 0.5 to 3 µM | 0.1 to 1 µM | Cc1ccc(O)c(C)c1NC(=O)c1cnc(Nc2cc(C(F)(F)F)n(C)n2)s1 [BAA-047] | X (3-<10 fold) | 3 to 10 µM | – | – | – | – | – | – | – |
| 0.05 to 1 µM | > 11 µM | >X (100-<1000 fold) | – | – | Cc1ccc(O)c(C)c1NC(=O)c1cnc(NCCCNC(=O)OC(C)(C)C)s1 [BAA-071, tert-butyl N-[3-[5-[(3-hydroxy-2,6-dimethyl-phenyl)carbamoyl]thiazol-2-yllamino]propyl]carbamate] | – | – | – | – | > 10 µM | – | – | X (3-<10 fold) | 0.5 to 3 µM |
| 0.05 to 1 µM | > 11 µM | X (100-<1000 fold) | – | – | Cc1ccc(O)c(C)c1NC(=O)c1cnc(Nc2ccn(CC(=O)NCCN(C)C)n2)s1 [BAA-160] | – | – | – | – | 3 to 10 µM | – | – | X (3-<10 fold) | 0.5 to 3 µM |
| < 0.05 µM | 1 to 11 µM | Y (1000-5000 fold) | 0.5 to 3 µM | – | CCNC(=O)Cn1cc(C)c(Nc2ncc(C(=O)Nc3c(C)ccc(O)c3C)s2)n1 [BAA-206, 2-[[1-[2-(ethylamino)-2-oxo-ethyl]-4-methyl-pyrazol-3-yl]amino]-N-(3-hydroxy-2,6-dimethyl-phenyl)thiazole-5-carboxamide] | >Y (10-30 fold) | > 10 µM | – | – | – | – | – | – | – |
| < 0.05 µM | > 11 µM | X (100-<1000 fold) | – | – | Cc1ccc(O)c(C)c1NC(=O)c1cnc(Nc2ccn(CC(=O)NC3CCNCC3)n2)s1 [BAA-224, N-(3-hydroxy-2,6-dimethylphenyl)-2-((1-(2-oxo-2-(piperidin-4-ylamino)ethyl)-1H-pyrazol-3-yl)amino)thiazole-5-carboxamide] | – | – | – | – | 3 to 10 µM | – | – | Z (>30 fold) | < 0.5 µM |
| < 0.05 µM | > 11 µM | Y (1000-5000 fold) | – | – | Cc1ccc(O)c(C)c1NC(=O)c1cnc(Nc2ccn(CC(=O)N3CCNC(C)(C)C3)n2)s1 [BAA-229, 2-((1-(2-(3,3-dimethylpiperazin-1-yl)-2-oxoethyl)-1H-pyrazol-3-yl)amino)-N-(3-hydroxy-2,6-dimethylphenyl)thiazole-5-carboxamide] | – | – | – | – | > 10 µM | – | – | X (3-<10 fold) | 3 to 10 µM |
